Measured values from article PMC3784060 (Cancer Chemotherapy and Pharmacology, 2013).

Assays:
[1] = test system: primary AML cells (AML 08); assay: Annexin V/PI apoptosis assay, primary AML cells; format: cell-based, human; conditions: 2, 20, and 200 nM
Method: Primary leukemia cells for in vitro studies were isolated from BM or PB obtained from AML or ALL patients enrolled on a separate University of Maryland, Baltimore, IRB-approved protocol for tissue collection and not treated on this clinical study. The cells were isolated by gradient centrifugation using LSM (Mediatech) according to the manufacturer’s protocol. Cells were used either fresh or after viable freezing (FBS/10 % DMSO). Primary leukemia cells were cultured in RPMI 1640 (Invitrogen, Grand Island, NY, USA) supplemented with 15 % heat-inactivated FBS (HyClone Laboratories Inc., Red Bank, NJ, USA) and 200 mM L-Glutamine (Invitrogen). Leukemia cell lines HL-60 (AML), MOLT-4 (T cell ALL), and K562 (chronic myelogenous leukemia [CML] in erythroid blast transformation) were purchased from American Type Culture Collection (ATCC, Manassas, VA, USA) and cultured in RPMI 1640 (Invitrogen) supplemented with 10 % heat-inactivated FBS (HyClone Laboratories Inc.) and 200 mM L-Glutamine (Invitrogen).

[2] = phase II study in acute leukemia: toxicity (NCI CTCAE version 3.0); format: in vivo, human
Method: The study was approved by the Institutional Review Board (IRB) at each participating institution and was conducted in accordance with the Declaration of Helsinki and in compliance with International Conference on Harmonization Good Clinical Practice Guidelines. Written informed consent was obtained from all patients before study enrollment.
Each cycle lasted 21 days. Patient could continue treatment on the study in the absence of disease progression or unacceptable toxicity. The next cycle of therapy could start if non-hematologic toxicity from previous cycle recovered to ≤grade 1, and dose delay of up to 3 weeks was allowed for recovery. Permanent dose reduction was required for any ≥grade 3 clinically significant non-hematologic adverse event (70 mg/m^2 → 50 mg/m^2; 50 mg/m^2 → 40 mg/m^2; 40 mg/m^2 → 30 mg/m^2; 30 mg/m^2 → discontinue). To allow for continued treatment of subjects whose cytopenias were due to leukemia and not due to drug toxicity, subsequent cycles of treatment were allowed if absolute neutrophil count (ANC) ≥0.5 × 10^9/L or for ANC <0.5 × 10^9/L but no more than 20 % below the baseline pretreatment levels and platelet count ≥20 × 10^9/L or platelets <20 × 10^9/L but no more than 20 % below the baseline pretreatment levels. Anti-emetic prophylaxis including serotonin-receptor antagonist, metoclopramide, or prochloperazine with or without dexamethasone was allowed. […] Dexamethasone 20 mg IV was given early if symptoms of cytokine release syndrome were observed.
Response was assessed by bone marrow (BM) examination on day 21 of cycles 1 and 2, and every 6 weeks thereafter until complete remission or progressive disease (PD). Response was determined according to the revised recommendations of the International Working Group (IWG) for AML [33]. Toxicities were graded according to the National Cancer Institute Common Terminology Criteria for Adverse Events (NCI CTCAE), version 3.0 (http://ctep.cancer.gov/protocolDevelopment/electronic_applications/docs/ctcaev3.pdf). Hematologic and chemistry profiles were monitored on day 1 and 2 of each cycle or until resolution of acute toxicities and subsequently at least once a week or more frequently depending on the individual patient’s needs.

[3] = dinaciclib-related hematologic toxicity

With `CCc1cnn2c(NCc3ccc[n+]([O-])c3)cc(N3CCCC[C@H]3CCO)nc12` [Dinaciclib] the “apoptosis (AnnexinV/PI flow cytometry)” value [1] was “induced apoptosis in primary AML cells (AML 08) in a time- and concentration-dependent manner”, the “Grade ≥3 fatigue, patients” value ([2]; 4 patients) was 20% and the “patients with grade ≥3 treatment-related adverse events” value ([2]; 15 of 20 patients) was 75%. For the same compound, the “TLS-associated hyperkalemia, patients” value ([2]; Cairo-Bishop criteria, cycle 1) was 25%, the “TLS-associated hyperphosphatemia, patients” value ([2]; Cairo-Bishop criteria, cycle 1) was 30% and the “TLS-associated hyperuricemia, patients” value ([2]; Cairo-Bishop criteria, cycle 1) was 10%. The “TLS-associated hypocalcemia, patients” value ([2]; Cairo-Bishop criteria, cycle 1) was 25%, the “patients with at least one significant TLS-associated laboratory abnormality” value ([2]; Cairo-Bishop criteria, cycle 1) was “half of the patients” and the “Acute renal failure, All (%)” value ([2]; Cycle 1 n = 20) was 2 (10) patients (%). The “Acute renal failure, Grade ≥3” value ([2]; Cycle 1 n = 20) was 2 patients, the “Anorexia, All (%)” value ([2]; Cycle 1 n = 20) was 1 (5) patients (%) and the “Bacteremia, All (%)” value ([2]; Cycle 1 n = 20) was 2 (10) patients (%). For the same compound, the “Bacteremia, Grade ≥3” value ([2]; Cycle 1 n = 20) was 2 patients, the “Cytokine release sy, All (%)” value ([2]; Cycle 1 n = 20) was 2 (10) patients (%) and the “Dehydration, All (%)” value ([2]; Cycle 1 n = 20) was 1 (5) patients (%). The “Dehydration, Grade ≥3” value ([2]; Cycle 1 n = 20) was 1 patients, the “Diarrhea, All (%)” value ([2]; Cycle 1 n = 20) was 14 (70) patients (%) and the “Diarrhea, Grade ≥3” value ([2]; Cycle 1 n = 20) was 1 patients. The “Fatigue, All (%)” value ([2]; Cycle 1 n = 20) was 6 (30) patients (%), the “Fatigue, Grade ≥3” value ([2]; Cycle 1 n = 20) was 2 patients and the “Hyperbilirubinemia, All (%)” value ([2]; Cycle 1 n = 20) was 2 (10) patients (%). For the same compound, the “Hyperglycemia, All (%)” value ([2]; Cycle 1 n = 20) was 4 (20) patients (%), the “Hyperglycemia, Grade ≥3” value ([2]; Cycle 1 n = 20) was 2 patients and the “Hyperkalemia, All (%)” value ([2]; Cycle 1 n = 20) was 3 (15) patients (%). For the same compound, the “Hyperkalemia, Grade ≥3” value ([2]; Cycle 1 n = 20) was 2 patients, the “Hyperphosphatemia, All (%)” value ([2]; Cycle 1 n = 20) was 5 (25) patients (%) and the “Hyperphosphatemia, Grade ≥3” value ([2]; Cycle 1 n = 20) was 1 patients. For the same compound, the “Hypertension, All (%)” value ([2]; Cycle 1 n = 20) was 1 (5) patients (%), the “Hypoalbuminemia, All (%)” value ([2]; Cycle 1 n = 20) was 4 (20) patients (%) and the “Hypocalcemia, All (%)” value ([2]; Cycle 1 n = 20) was 6 (30) patients (%). For the same compound, the “Hypocalcemia, Grade ≥3” value ([2]; Cycle 1 n = 20) was 1 patients, the “Hypokalemia, All (%)” value ([2]; Cycle 1 n = 20) was 2 (10) patients (%) and the “Hyponatremia, All (%)” value ([2]; Cycle 1 n = 20) was 2 (10) patients (%). The “Hyponatremia, Grade ≥3” value ([2]; Cycle 1 n = 20) was 1 patients, the “Hypotension, All (%)” value ([2]; Cycle 1 n = 20) was 6 (30) patients (%) and the “Hypotension, Grade ≥3” value ([2]; Cycle 1 n = 20) was 1 patients. The “Increased ALT, All (%)” value ([2]; Cycle 1 n = 20) was 4 (20) patients (%), the “Increased AST, All (%)” value ([2]; Cycle 1 n = 20) was 8 (40) patients (%) and the “Increased AST, Grade ≥3” value ([2]; Cycle 1 n = 20) was 3 patients. For the same compound, the “Increased LDH, All (%)” value ([2]; Cycle 1 n = 20) was 2 (10) patients (%), the “Increased LDH, Grade ≥3” value ([2]; Cycle 1 n = 20) was 2 patients and the “Increased creatinine, All (%)” value ([2]; Cycle 1 n = 20) was 3 (15) patients (%). The “Increased creatinine, Grade ≥3” value ([2]; Cycle 1 n = 20) was 1 patients, the “Nausea, All (%)” value ([2]; Cycle 1 n = 20) was 8 (40) patients (%) and the “Nausea, Grade ≥3” value ([2]; Cycle 1 n = 20) was 1 patients. For the same compound, the “Pneumonia, All (%)” value ([2]; Cycle 1 n = 20) was 2 (10) patients (%), the “Pneumonia, Grade ≥3” value ([2]; Cycle 1 n = 20) was 2 patients and the “Sinus Tachycardia, All (%)” value ([2]; Cycle 1 n = 20) was 2 (10) patients (%). The “Stomatitis, All (%)” value ([2]; Cycle 1 n = 20) was 1 (5) patients (%), the “Syncope, All (%)” value ([2]; Cycle 1 n = 20) was 1 (5) patients (%) and the “Syncope, Grade ≥3” value ([2]; Cycle 1 n = 20) was 1 patients. For the same compound, the “Tumor lysis sy, All (%)” value ([2]; Cycle 1 n = 20) was 3 (15) patients (%), the “Tumor lysis sy, Grade ≥3” value ([2]; Cycle 1 n = 20) was 3 patients and the “Vomiting, All (%)” value ([2]; Cycle 1 n = 20) was 9 (45) patients (%). For the same compound, the “Dehydration, All (%)” value ([2]; Cycle 2 n = 10) was 1 (10) patients (%), the “Diarrhea, All (%)” value ([2]; Cycle 2 n = 10) was 7 (70) patients (%) and the “Diarrhea, Grade ≥3” value ([2]; Cycle 2 n = 10) was 1 patients. The “Fatigue, All (%)” value ([2]; Cycle 2 n = 10) was 2 (20) patients (%), the “Fatigue, Grade ≥3” value ([2]; Cycle 2 n = 10) was 1 patients and the “Hyperbilirubinemia, All (%)” value ([2]; Cycle 2 n = 10) was 1 (10) patients (%). For the same compound, the “Hyperkalemia, All (%)” value ([2]; Cycle 2 n = 10) was 1 (10) patients (%), the “Hyperphosphatemia, All (%)” value ([2]; Cycle 2 n = 10) was 1 (10) patients (%) and the “Hypoalbuminemia, All (%)” value ([2]; Cycle 2 n = 10) was 1 (10) patients (%). For the same compound, the “Hypotension, All (%)” value ([2]; Cycle 2 n = 10) was 2 (20) patients (%), the “Increased ALT, All (%)” value ([2]; Cycle 2 n = 10) was 1 (10) patients (%) and the “Increased AST, All (%)” value ([2]; Cycle 2 n = 10) was 1 (10) patients (%). For the same compound, the “Nausea, All (%)” value ([2]; Cycle 2 n = 10) was 3 (30) patients (%), the “Pneumonia, All (%)” value ([2]; Cycle 2 n = 10) was 1 (10) patients (%) and the “Stomatitis, All (%)” value ([2]; Cycle 2 n = 10) was 1 (10) patients (%). For the same compound, the “Stomatitis, Grade ≥3” value ([2]; Cycle 2 n = 10) was 1 patients, the “Syncope, All (%)” value ([2]; Cycle 2 n = 10) was 1 (10) patients (%) and the “Syncope, Grade ≥3” value ([2]; Cycle 2 n = 10) was 1 patients. The “Vomiting, All (%)” value ([2]; Cycle 2 n = 10) was 2 (20) patients (%), the “Anorexia, All (%)” value ([2]; Cycle 3 n = 6) was 1 (17) patients (%) and the “Cytokine release sy, All (%)” value ([2]; Cycle 3 n = 6) was 1 (17) patients (%). For the same compound, the “Cytokine release sy, Grade ≥3” value ([2]; Cycle 3 n = 6) was 1 patients, the “Diarrhea, All (%)” value ([2]; Cycle 3 n = 6) was 2 (33) patients (%) and the “Fatigue, All (%)” value ([2]; Cycle 3 n = 6) was 1 (17) patients (%). For the same compound, the “Fatigue, Grade ≥3” value ([2]; Cycle 3 n = 6) was 1 patients, the “Hypertension, All (%)” value ([2]; Cycle 3 n = 6) was 1 (17) patients (%) and the “Increased ALT, All (%)” value ([2]; Cycle 3 n = 6) was 1 (17) patients (%). For the same compound, the “Nausea, All (%)” value ([2]; Cycle 3 n = 6) was 1 (17) patients (%), the “Vomiting, All (%)” value ([2]; Cycle 3 n = 6) was 2 (33) patients (%) and the “≥grade 3 anemia, patients” value [2, 3] was 25%. The “≥grade 3 febrile neutropenia, patients” value [2, 3] was 25%, the “≥grade 3 leukopenia, patients” value [2, 3] was 40% and the “≥grade 3 neutropenia, patients” value [2, 3] was 10%. The “≥grade 3 thrombocytopenia, patients” value [2, 3] was 20% and the “Grade 1 and 2 diarrhea, patients” value ([2]; in vivo) was 70%.
